According to patent publication US9371387B2 (GACHON UNIVERSITY OF INDUSTRY-ACADEMIC COOPERATION …, priority 2011, dated 2016):

Tested on: human macrophage cells
Test: AGE-albumin synthesis and release by macrophages under oxidative stress (ELISA)
Type: cell-based
Conditions: FIG. 3
Description: For the in vitro study, immortal human macrophage cells were employed. The macrophages were grown in DMEM (Dulbecco's modified Eagle's medium, Gibco)-high glucose supplemented with 10% heat-inactivated FBS (fetal bovine serum, Gibco) and […] gentamicin (Sigma-Aldrich) at 37° C. in a 5% CO2 atmosphere.
After incubation at 4° C. for 12 hrs, the plates were washed three times with 1×PBS to remove the antibody which remained non-immobilized to the well, and then was filled with 5% BSA. […] After the plates were washed three time with 1×PBS to remove the antigens which remained unreacted, an anti-AGE antibody (Abcam) was applied at a concentration of 1 ug/ml to each well and incubated at room temperature for 2 hrs. The antibody remaining unreacted was washed off with 1×PBS. Each well was incubated with 1 ug/ml peroxidase-conjugated secondary antibody (Vector laboratory) at room temperature for 2 hrs and washed with 1×PBS to remove the secondary antibodies which remained unreacted. Color was developed with TMB (3,3′,5,5′-tetramethylbenzidine) at room temperature for 20 min. When the TMP buffer turned dark blue, the color development was stopped with 2NH2SO4. Absorbance at 450 nm was read on an ELISA reader (VERSA Max, Molecular Devices) (FIG. 1).

Row | SMILES | expression level of AGE-albumin (macrophages, addition of antioxidant, irrespective of hypoxia (H2O2)) | amount of AGE-albumin (macrophages exposed to hydrogen peroxide)
1 | O=C1O[C@H]([C@@H](O)CO)C(O)=C1O [ascorbic acid] | drastically reduced | 
2 | OO [hydrogen peroxide] |  | increased in a concentration-dependent manner
